For data set [1] the following is noted: 14-membered ring.
Another data set has as its target JAK1 JH2 (Homo sapiens (Human), UniProt P23458). As to the kind of experiment: JAK1 JH2 binding (Kd, Table 2). The settings on record: JH2 domain.
The next data set addresses TYK2 JH1 (Homo sapiens (Human), UniProt P29597). As to the kind of experiment: TYK2 JH1 binding (Kd, Table 2). As to conditions: JH1 domain.
Data set [2] has as its target human TYK2 (JH2domain-pseudokinase) (Homo sapiens (Human), UniProt P29597). In words: TYK2 JH2 domain binding assay (KINOMEscan). How it is done:
Binding constants for the compounds described herein against the JH2 domain were determined by the following protocol for a KINOMEscan® assay (DiscoveRx). A fusion protein of a partial length construct of human TYK2 (JH2domain-pseudokinase) (amino acids G556 to D888 based on reference sequence NP_003322.3) and the DNA binding domain of NFkB was expressed in transiently transfected HEK293 cells. From these HEK 293 cells, extracts were prepared in M-PER extraction buffer (Pierce) in the presence of Protease Inhibitor Cocktail Complete (Roche) and Phosphatase Inhibitor Cocktail Set II (Merck) per manufacturers' instructions. The TYK2 (JH2domain-pseudokinase) fusion protein was labeled with a chimeric double-stranded DNA tag containing the NFkB binding site fused to an amplicon for qPCR readout, which was added directly to the expression extract (the final concentration of DNA-tag in the binding reaction is 0.1 nM).
Streptavidin-coated magnetic beads (Dynal M280) were treated with a biotinylated small molecule ligand for 30 minutes at room temperature to generate affinity resins the binding assays. The liganded beads were blocked with excess biotin and washed with blocking buffer (SeaBlock (Pierce), 1% BSA, 0.05% Tween 20, 1 mM DTT) to remove unbound ligand and to reduce nonspecific binding.
The binding reaction was assembled by combining 16 μl of DNA-tagged kinase extract, 3.8 μl liganded affinity beads, and 0.18 μl test compound (PBS/0.05% Tween 20/10 mM DTT/0.1% BSA/2 μg/ml sonicated salmon sperm DNA)]. Extracts were used directly in binding assays without any enzyme purification steps at a ≥10,000-fold overall stock dilution (final DNA-tagged enzyme concentration <0.1 nM). Extracts were loaded with DNA-tag and diluted into the binding reaction in a two-step process. First extracts were diluted 1:100 in 1×binding buffer (PBS/0.05% Tween 20/10 mM DTT/0.1% BSA/2 […] sonicated salmon sperm DNA) containing 10 nM DNA-tag. This dilution was allowed to equilibrate at room temperature for 15 minutes and then subsequently diluted 1:100 in 1× binding buffer. Test compounds were prepared as 111× stocks in 100% DMSO. Kds were determined using an 11-point 3-fold compound dilution series with three DMSO control points. All compounds for Kd measurements were distributed by acoustic transfer (non-contact dispensing) in 100% DMSO. The compounds were then diluted directly into the assays such that the final concentration of DMSO was 0.9%. All reactions were performed in polypropylene 384-well plates. Each was a final volume of 0.02 mL. Assays were incubated with shaking for 1 hour at room temperature. Then the beads were pelleted and washed with wash buffer (1×PBS, 0.05% Tween 20) to remove displaced kinase and test compound. The washed based were resuspended in elution buffer (1 λPBS, 0.05% Tween […] non-biotinylated affinity ligand) and incubated at room temperature with shaking for 30 minutes. The kinase concentration in the eluates was measured by qPCR. qPCR reactions were assembled by adding 2.5 μL of kinase eluate to 7.5 μL of qPCR master mix containing […] amplicon primers and 0.15 μM amplicon probe. The qPCR protocol consisted of a 10 minute hot start at 95° C., followed by 35 cycles of 95° C. for 15 seconds, 60° C. for 1 minute.
Test compounds were prepared as 111× stocks in 100% DMSO. Kds were determined using an 11-point 3-fold compound dilution series with three DMSO control points. All compounds for Kd measurements were distributed by acoustic transfer (non-contact dispensing) in 100% DMSO. The compounds were then diluted directly into the assays such that the final concentration of DMSO was 0.9%. The Kds were determined using a compound top concentration of 30,000 nM. Kd measurements were performed in duplicate.
Binding constants (Kds) were calculated with a standard dose-response curve using the Hill equation: […]
The Hill Slope was set to −1. […]

Structures can show the parent of a compound that is named as a salt. Where two headings read alike, the source gives them in different places.

JAK1 JH2, sequence (P23458 583-855): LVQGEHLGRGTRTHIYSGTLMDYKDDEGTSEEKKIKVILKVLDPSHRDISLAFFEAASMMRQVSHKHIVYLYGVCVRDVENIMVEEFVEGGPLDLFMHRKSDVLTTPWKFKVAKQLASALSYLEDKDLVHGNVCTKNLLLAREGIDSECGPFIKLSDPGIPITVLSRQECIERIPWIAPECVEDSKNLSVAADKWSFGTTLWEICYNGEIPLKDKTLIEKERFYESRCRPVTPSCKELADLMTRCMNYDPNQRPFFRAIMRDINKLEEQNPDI
human TYK2 (JH2domain-pseudokinase), sequence (P29597 556-888): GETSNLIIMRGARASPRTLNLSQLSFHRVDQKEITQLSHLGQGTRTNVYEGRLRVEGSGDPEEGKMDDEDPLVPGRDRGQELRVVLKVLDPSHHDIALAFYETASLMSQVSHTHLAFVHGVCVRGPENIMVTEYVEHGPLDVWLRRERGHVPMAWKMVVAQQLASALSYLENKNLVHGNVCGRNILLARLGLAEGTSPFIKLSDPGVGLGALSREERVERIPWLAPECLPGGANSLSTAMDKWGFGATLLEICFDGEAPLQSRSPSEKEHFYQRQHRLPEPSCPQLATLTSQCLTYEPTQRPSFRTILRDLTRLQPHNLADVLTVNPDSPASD
TYK2 JH1, sequence (P29597 897-1176): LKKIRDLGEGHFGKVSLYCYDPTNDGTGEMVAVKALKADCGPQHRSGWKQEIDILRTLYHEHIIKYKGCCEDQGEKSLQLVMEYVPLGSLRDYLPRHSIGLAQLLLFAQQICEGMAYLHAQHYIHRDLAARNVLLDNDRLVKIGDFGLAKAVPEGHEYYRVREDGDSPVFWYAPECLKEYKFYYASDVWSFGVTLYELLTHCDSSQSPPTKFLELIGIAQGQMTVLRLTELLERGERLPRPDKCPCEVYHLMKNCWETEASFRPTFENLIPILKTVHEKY

Consider “tert-butyl N-methyl-N-[(14R)-14-methyl-16-oxo-12-oxa-2,7,8,15,19,23,24-heptaazapentacyclo[15.5.2.1^(3,10.0^(5,9.0^(20,24]pentacosa-1(23),3(25),4,6,9,17,19,21-octaen-21-yl]carbamate”, for which the ring closure, isolated yield in data set [1] (cn_pd bond, Pd2(dba)3/BINAP/Cs2CO3, 1,4-dioxane, 23.0 mM, 80.0 °C) was 71%.

On to “tert-butyl N-methyl-N-[(12R)-12-methyl-10-oxo-2,4,5,7,11,14,16,18-octaazapentacyclo[13.6.2.2^(3,6.0^(5,9.0^(19,23]pentacosa-1(21),3,6,8,15,17,19,22,24-nonaen-24-yl]carbamate”, for which the ring closure, isolated yield in data set [1] (cn_pd bond, Pd2(dba)3/Xantphos/Cs2CO3, 1,4-dioxane, 100.0 mM, 85.0 °C) is 18%.

Turning to “tert-butyl N-methyl-N-[(12R)-12-methyl-10-oxo-2,4,5,7,11,14,18-heptaazapentacyclo[13.6.2.2^(3,6.0^(5,9.0^(19,23]pentacosa-1(21),3,6,8,15,17,19,22,24-nonaen-24-yl]carbamate”, the ring closure, isolated yield in data set [1] (cn_pd bond, Pd2(dba)3/Xantphos/Cs2CO3, 1,4-dioxane, 85.0 mM, 90.0 °C) turned out to be 62%.

In turn, `C[C@@H]1COCc2cc(cn3ccnc23)Nc2cc(N(C)C(=O)OC(C)(C)C)c3ncc(n3n2)C(=O)N1` returned a ring closure, isolated yield in data set [1] (from C[C@H](COCc1cc(N)cn2ccnc12)NC(=O)c1cnc2c(N(C)C(=O)OC(C)(C)C)cc(Cl)nn12, cn_pd bond, Pd2(dba)3/Xantphos/Cs2CO3, 1,4-dioxane, 80.0 °C) of 34%.

In the case of `C[C@@H]1COCc2cc(c3nnn(C)c3c2)Nc2cc(N(C)C(=O)OC(C)(C)C)c3ncc(n3n2)C(=O)N1`, the ring closure, isolated yield in data set [1] (from C[C@H](COCc1cc(N)c2nnn(C)c2c1)NC(=O)c1cnc2c(N(C)C(=O)OC(C)(C)C)cc(Cl)nn12, cn_pd bond, Pd2(dba)3/BINAP/Cs2CO3, dioxane, 50.0 mM, 16.0 h) is 50%.

`C[C@@H]1COCc2cc(c3nnn(C)c3c2)Nc2cc(N(C)C(=O)OC(C)(C)C)n3ncc(c3n2)C(=O)O1`: the ring closure, isolated yield in data set [1] (from C[C@@H](O)COCc1cc(Nc2cc(N(C)C(=O)OC(C)(C)C)n3ncc(C(=O)O)c3n2)c2nnn(C)c2c1, ester bond, DIAD/PPh3, DCM, 20.0 mM, 16.0 h) is 52%.

In the case of `C[C@@H]1COc2ccnc3cnc(cc23)Nc2cc(N(C)C(=O)OC(C)(C)C)c3ncc(n3n2)C(=O)N1`, in data set [1] (from C[C@H](COc1ccnc2cnc(N)cc12)NC(=O)c1cnc2c(N(C)C(=O)OC(C)(C)C)cc(Cl)nn12, cn_pd bond, Pd2(dba)3/Xantphos/Cs2CO3, 1,4-dioxane, 57.0 mM, 80.0 °C, 16.0 h), the ring closure, isolated yield worked out at 54%.

Consider “tert-butyl N-methyl-N-[(12R)-12-methyl-10-oxo-14-oxa-2,4,5,7,11,18-hexaazapentacyclo[13.6.2.2^(3,6.0^(5,9.0^(19,23]pentacosa-1(22),3,6,8,15,17,19(23),20,24-nonaen-24-yl]carbamate”, for which the ring closure, isolated yield in data set [1] (cn_pd bond, Pd2(dba)3/Cs2CO3, 1,4-dioxane, 42.3 mM, 80.0 °C) was found to be 67%.

Take `CNc1cc2nc3c(cnn13)C(=O)O[C@H](C)COCc1cc(c3nnn(C)c3c1)N2` [Compound 4, (R,1^3E,1^4E)-3^1,7-dimethyl-1^7-(methylamino)-3^1H-5,8-dioxa-2-aza-1(5,3),3(4,6)-dipyrazolo [1,5-a]pyrimidinacyclononaphan-9-one]: the Kd is 1 to 10 µM at JAK1 JH2, at least 30 µM at TYK2 JH1 and below 0.01 µM in data set [2].

“tert-Butyl ((7R,E)-7-(hydroxymethyl)-3^1-methyl-9-oxo-3^1H-5-oxa-2,8-diaza-1(6,3),3(4,6)-diimidazo[1,2-b]pyridazinacyclononaphane-1^8-yl)(methyl)carbamate” displayed a ring closure, isolated yield in data set [1] (cn_pd bond, Pd2(dba)3/BINAP/Cs2CO3, dioxane, 10.0 mM) of 25%.

With `CNc1cc2nc3c(cnn13)C(=O)N[C@H](C)COCc1cc(c3ncn(C)c3c1)N2` [Compound 11, (R,1^3E,1^4E)-3′,7-Dimethyl-17-(methylamino)-3^1H-5-oxa-2,8-diaza-1(5,3)-pyrazolo[1,5-a]pyrimidina-3(4,6)-benzo[d]imidazolacyclononaphan-9-one], the Kd is 1 to 10 µM at JAK1 JH2, 10 to 30 µM on TYK2 JH1 and below 0.01 µM in data set [2].

As for `CNc1cc2nn3c(cnc13)C(=O)N[C@H](C)COCc1cc(c3nn(C)cc3c1)N2` [Compound 36], the Kd is 0.01 to 1 µM on JAK1 JH2, 1 to 10 µM at TYK2 JH1 and below 0.01 µM in data set [2].

`CNc1cc2nc3c(cnn13)C(=O)N[C@H](C)[C@H](C)OCc1cc(c3nnn(C)c3c1)N2` [Compound 38]: the results for the Kd (on JAK1 JH2; at TYK2 JH1; in data set [2]) were 1 to 10 µM, at least 30 µM and below 0.01 µM, respectively.

As to `CNc1cc2nc3c(cnn13)C(=O)N[C@H](C)COCc1cc(c3c(c1)ncn3C)N2` [Compound 9, (R,1^3E,1^4E)-3^1,7-Dimethyl-1^7-(methylamino)-3^1H-5-oxa-2,8-diaza-1(5,3)-pyrazolo[1,5-a]pyrimidina-3(7,5)-benzo[d]imidazolacyclononaphan-9-one], the results for the dissociation constant Kd (on JAK1 JH2; at TYK2 JH1; in data set [2]) were 1 to 10 µM, at least 30 µM and below 0.01 µM, respectively.

Turning to `CNc1cc2nc3c(cnn13)C(=O)N[C@H](C)[C@@H](C)OCc1cc(c3c(c1)nnn3C)N2` [Compound 94], the Kd was 10 to 30 µM at JAK1 JH2, at least 30 µM on TYK2 JH1 and below 0.01 µM in data set [2].

For `CNc1cc2nc3c(cnn13)C(=O)N[C@H](CO)COCc1cc(c3nnn(C)c3c1)N2` [Compound 91], the values for the Kd (on JAK1 JH2; on TYK2 JH1; in data set [2]) were 1 to 10 µM, 0.01 to 1 µM and below 0.01 µM, respectively.

Take `CNc1cc2nn3c(cnc13)C(=O)N[C@H](C)COCc1cc(c3ncn(C)c3c1)N2` [Compound 10, (7R,E)-3′,7-Dimethyl-1^8-(methylamino)-3^1H-5-oxa-2,8-diaza-1(6,3)-imidazo[1,2-b]pyrida-zina-3(4,6)-benzo[d]imidazolacyclononaphan-9-one]: the equilibrium dissociation constant (Kd) on JAK1 JH2 was 1 to 10 µM; at TYK2 JH1, 1 to 10 µM; in data set [2] it was below 0.01 µM.

As for `CNc1cc2nn3c(cnc13)C(=O)N[C@H](C)COCc1cc(cc3[nH]ncc13)N2` [Compound 96, (14R)-14-methyl-21-(methylamino)-12-oxa-2,6,7,15,19,23,24-heptaazapentacyclo[15.5.2.1^(3,10.0^(5,9.0^(20,24]pentacosa-1(23),3(25),4,7,9,17,19,21-octaen-16-one hydrochloride], the Kd is 0.01 to 1 µM on JAK1 JH2, 1 to 10 µM at TYK2 JH1 and below 0.01 µM in data set [2].

In the case of “(R,1^3E,1^4E)-3′,7-Dimethyl-1^7-(methylamino)-3^1H-5-oxa-2,8-diaza-1(5,3)-pyrazolo[1,5-a]pyrimidina-3(7,5)-indazolacyclononaphan-9-one [Compound 13]”, the Kd on JAK1 JH2 is 10 to 30 µM; on TYK2 JH1, 1 to 10 µM; in data set [2] it was below 0.01 µM.

On to `CNc1cc2nc3c(cnn13)C(=O)N[C@H](C)COCc1cc(c3cn(C)nc3c1)N2` [Compound 53], for which the Kd was 0.01 to 1 µM at JAK1 JH2, 10 to 30 µM on TYK2 JH1 and below 0.01 µM in data set [2].

What is called Kd is the free concentration of one partner at which half of the binding sites on the other are occupied at equilibrium, for simple one-to-one binding. The low end stands for tighter binding, the high end for weaker binding.

These data come from US20250213571A1, “TYK2 INHIBITORS AND USES THEREOF” (Alumis Inc., priority 2022, published 2025).
